From ChEMBL document CHEMBL5505958, “Optimization of sequence and chiral content enhances therapeutic potential of tilapia piscidin peptides” (Eur J Med Chem, 2024)
Calls of active or inactive are those of the source.

Key:
[1] = system: Escherichia coli; experiment: Antibacterial activity against Escherichia coli 10675 assessed as inhibition of bacterial growth incubated for 16 to 20 hrs; format: functional; settings: time 16-20 hrs
[2] = system: Klebsiella pneumoniae; experiment: Antibacterial activity against Klebsiella pneumoniae 10692 assessed as inhibition of bacterial growth incubated for 16 to 20 hrs; format: functional; settings: time 16-20 hrs
[3] = system: Acinetobacter baumannii; experiment: Antibacterial activity against Acinetobacter baumannii 10591 assessed as inhibition of bacterial growth incubated for 16 to 20 hrs; format: functional; settings: time 16-20 hrs
[4] = system: Klebsiella aerogenes; experiment: Antibacterial activity against Enterobacter aerogenes 15630 assessed as inhibition of bacterial growth incubated for 16 to 20 hrs; format: functional; settings: time 16-20 hrs
[5] = system: Klebsiella oxytoca; experiment: Antibacterial activity against Klebsiella oxytoca 13985 assessed as inhibition of bacterial growth incubated for 16 to 20 hrs; format: functional; settings: time 16-20 hrs
[6] = system: Salmonella typhimurium; experiment: Antibacterial activity against Salmonella typhimurium DT104 assessed as inhibition of bacterial growth incubated for 16 to 20 hrs; format: functional, Salmonella enterica subsp. enterica serovar Typhimurium; settings: Salmonella enterica, time 16-20 hrs
[7] = system: Salmonella enterica; experiment: Antibacterial activity against Salmonella enterica 15455 assessed as inhibition of bacterial growth incubated for 16 to 20 hrs; format: functional; settings: time 16-20 hrs
[8] = system: Vibrio vulnificus; experiment: Antibacterial activity against Vibrio vulnificus 204 assessed as inhibition of bacterial growth incubated for 16 to 20 hrs; format: functional; settings: time 16-20 hrs
[9] = system: Yersinia enterocolitica; experiment: Antibacterial activity against Yersinia enterocolitica 13999 assessed as inhibition of bacterial growth incubated for 16 to 20 hrs; format: functional; settings: time 16-20 hrs
[10] = system: Klebsiella pneumoniae; experiment: Antibacterial activity against Klebsiella pneumoniae BAA 2473 assessed as inhibition of bacterial growth incubated for 16 to 20 hrs; format: functional; settings: time 16-20 hrs
[11] = system: Staphylococcus aureus; experiment: Antibacterial activity against Staphylococcus aureus 10780 assessed as inhibition of bacterial growth incubated for 16 to 20 hrs; format: functional; settings: time 16-20 hrs
[12] = system: Staphylococcus haemolyticus; experiment: Antibacterial activity against Staphylococcus haemolyticus 15237 assessed as inhibition of bacterial growth incubated for 16 to 20 hrs; format: functional; settings: time 16-20 hrs
[13] = system: Enterococcus faecium; experiment: Antibacterial activity against Enterococcus faecium 10067 assessed as inhibition of bacterial growth incubated for 16 to 20 hrs; format: functional; settings: time 16-20 hrs
[14] = system: Enterococcus faecalis; experiment: Antibacterial activity against Enterococcus faecalis 10066 assessed as inhibition of bacterial growth incubated for 16 to 20 hrs; format: functional; settings: time 16-20 hrs
[15] = system: Rhizopus arrhizus; experiment: Antifungal activity against Rhizopus oryzae 34550 assessed as inhibition of fungal growth incubated for 16 to 20 hrs; format: functional; settings: time 16-20 hrs
[16] = system: Escherichia coli; experiment: Bactericidal activity against Escherichia coli 10675 assessed as inhibition of bacterial growth incubated for 16 to 20 hrs; format: functional; settings: time 16-20 hrs
[17] = system: Klebsiella pneumoniae; experiment: Bactericidal activity against Klebsiella pneumoniae 10692 assessed as inhibition of bacterial growth incubated for 16 to 20 hrs; format: functional; settings: time 16-20 hrs
[18] = system: Acinetobacter baumannii; experiment: Bactericidal activity against Acinetobacter baumannii 10591 assessed as inhibition of bacterial growth incubated for 16 to 20 hrs; format: functional; settings: time 16-20 hrs
[19] = system: Klebsiella aerogenes; experiment: Bactericidal activity against Enterobacter aerogenes 15630 assessed as inhibition of bacterial growth incubated for 16 to 20 hrs; format: functional; settings: time 16-20 hrs
[20] = system: Klebsiella oxytoca; experiment: Bactericidal activity against Klebsiella oxytoca 13985 assessed as inhibition of bacterial growth incubated for 16 to 20 hrs; format: functional; settings: time 16-20 hrs
[21] = system: Salmonella typhimurium; experiment: Bactericidal activity against Salmonella typhimurium DT104 assessed as inhibition of bacterial growth incubated for 16 to 20 hrs; format: functional, Salmonella enterica subsp. enterica serovar Typhimurium; settings: Salmonella enterica, time 16-20 hrs
[22] = system: Salmonella enterica; experiment: Bactericidal activity against Salmonella enterica 15455 assessed as inhibition of bacterial growth incubated for 16 to 20 hrs; format: functional; settings: time 16-20 hrs
[23] = system: Vibrio vulnificus; experiment: Bactericidal activity against Vibrio vulnificus 204 assessed as inhibition of bacterial growth incubated for 16 to 20 hrs; format: functional; settings: time 16-20 hrs
[24] = system: Yersinia enterocolitica; experiment: Bactericidal activity against Yersinia enterocolitica 13999 assessed as inhibition of bacterial growth incubated for 16 to 20 hrs; format: functional; settings: time 16-20 hrs
[25] = system: Klebsiella pneumoniae; experiment: Bactericidal activity against Klebsiella pneumoniae BAA 2473 assessed as inhibition of bacterial growth incubated for 16 to 20 hrs; format: functional; settings: time 16-20 hrs
[26] = system: Staphylococcus aureus; experiment: Bactericidal activity against Staphylococcus aureus 10780 assessed as inhibition of bacterial growth incubated for 16 to 20 hrs; format: functional; settings: time 16-20 hrs
[27] = system: Staphylococcus haemolyticus; experiment: Bactericidal activity against Staphylococcus haemolyticus 15237 assessed as inhibition of bacterial growth incubated for 16 to 20 hrs; format: functional; settings: time 16-20 hrs
[28] = system: Enterococcus faecium; experiment: Bactericidal activity against Enterococcus faecium 10067 assessed as inhibition of bacterial growth incubated for 16 to 20 hrs; format: functional; settings: time 16-20 hrs
[29] = system: Enterococcus faecalis; experiment: Bactericidal activity against Enterococcus faecalis 10066 assessed as inhibition of bacterial growth incubated for 16 to 20 hrs; format: functional; settings: time 16-20 hrs
[30] = system: Rhizopus arrhizus; experiment: Fungicidal activity against Rhizopus oryzae 34550 assessed as inhibition of fungal growth incubated for 72 hrs; format: functional
[31] = system: Escherichia coli; experiment: Antibacterial activity against Escherichia coli 10675 assessed as inhibition of bacterial growth incubated for 16 to 20 hrs in presence of human serum; format: functional; settings: time 16-20 hrs
[32] = system: Acinetobacter baumannii; experiment: Antibacterial activity against Acinetobacter baumannii 10591 assessed as inhibition of bacterial growth incubated for 16 to 20 hrs in presence of human serum; format: functional; settings: time 16-20 hrs
[33] = system: Pseudomonas aeruginosa; experiment: Antibacterial activity against Pseudomonas aeruginosa 19660 assessed as inhibition of bacterial growth incubated for 16 to 20 hrs in presence of human serum; format: functional; settings: time 16-20 hrs
[34] = system: Klebsiella oxytoca; experiment: Antibacterial activity against Klebsiella oxytoca 13985 assessed as inhibition of bacterial growth incubated for 16 to 20 hrs in presence of human serum; format: functional; settings: time 16-20 hrs
[35] = system: Salmonella typhimurium; experiment: Antibacterial activity against Salmonella typhimurium DT104 assessed as inhibition of bacterial growth incubated for 16 to 20 hrs in presence of human serum; format: functional, Salmonella enterica subsp. enterica serovar Typhimurium; settings: Salmonella enterica, time 16-20 hrs
[36] = system: Salmonella enterica; experiment: Antibacterial activity against Salmonella enterica 15455 assessed as inhibition of bacterial growth incubated for 16 to 20 hrs in presence of human serum; format: functional; settings: time 16-20 hrs
[37] = system: Vibrio vulnificus; experiment: Antibacterial activity against Vibrio vulnificus 204 assessed as inhibition of bacterial growth incubated for 16 to 20 hrs in presence of human serum; format: functional; settings: time 16-20 hrs
[38] = system: Klebsiella pneumoniae; experiment: Antibacterial activity against Klebsiella pneumoniae TL 297 assessed as inhibition of bacterial growth incubated for 16 to 20 hrs in presence of human serum; format: functional; settings: time 16-20 hrs
[39] = system: Enterococcus faecium; experiment: Antibacterial activity against Enterococcus faecium 10067 assessed as inhibition of bacterial growth incubated for 16 to 20 hrs in presence of human serum; format: functional; settings: time 16-20 hrs
[40] = system: Escherichia coli; experiment: Bactericidal activity against Escherichia coli 10675 assessed as inhibition of bacterial growth incubated for 16 to 20 hrs in presence of human serum; format: functional; settings: time 16-20 hrs
[41] = system: Acinetobacter baumannii; experiment: Bactericidal activity against Acinetobacter baumannii 10591 assessed as inhibition of bacterial growth incubated for 16 to 20 hrs in presence of human serum; format: functional; settings: time 16-20 hrs
[42] = system: Pseudomonas aeruginosa; experiment: Bactericidal activity against Pseudomonas aeruginosa 19660 assessed as inhibition of bacterial growth incubated for 16 to 20 hrs in presence of human serum; format: functional; settings: time 16-20 hrs
[43] = system: Klebsiella oxytoca; experiment: Bactericidal activity against Klebsiella oxytoca 13985 assessed as inhibition of bacterial growth incubated for 16 to 20 hrs in presence of human serum; format: functional; settings: time 16-20 hrs
[44] = system: Salmonella typhimurium; experiment: Bactericidal activity against Salmonella typhimurium DT104 assessed as inhibition of bacterial growth incubated for 16 to 20 hrs in presence of human serum; format: functional, Salmonella enterica subsp. enterica serovar Typhimurium; settings: Salmonella enterica, time 16-20 hrs
[45] = system: Salmonella enterica; experiment: Bactericidal activity against Salmonella enterica 15455 assessed as inhibition of bacterial growth incubated for 16 to 20 hrs in presence of human serum; format: functional; settings: time 16-20 hrs
[46] = system: Vibrio vulnificus; experiment: Bactericidal activity against Vibrio vulnificus 204 assessed as inhibition of bacterial growth incubated for 16 to 20 hrs in presence of human serum; format: functional; settings: time 16-20 hrs
[47] = system: Klebsiella pneumoniae; experiment: Bactericidal activity against Klebsiella pneumoniae TL 297 assessed as inhibition of bacterial growth incubated for 16 to 20 hrs in presence of human serum; format: functional; settings: time 16-20 hrs
[48] = system: Enterococcus faecium; experiment: Bactericidal activity against Enterococcus faecium 10067 assessed as inhibition of bacterial growth incubated for 16 to 20 hrs in presence of human serum; format: functional; settings: time 16-20 hrs
[49] = system: Rhizopus arrhizus; experiment: Fungicidal activity against Rhizopus oryzae 34550 assessed as inhibition of fungal growth incubated for 16 to 20 hrs in presence of human serum; format: functional; settings: time 16-20 hrs
[50] = system: Klebsiella pneumoniae; experiment: Antimicrobial activity against drug-resistant Klebsiella pneumoniae BAA 2473 infected in C57BL/6 mouse assessed as reduction in bacterial load at 5 mg/kg, po administered for 2 hrs and measured at 24 hrs; format: functional, organism-based; settings: time 26.0 hrs
[51] = system: Pseudomonas aeruginosa; experiment: Antibacterial activity against Pseudomonas aeruginosa 19660 assessed as inhibition of bacterial growth incubated for 16 to 20 hrs; format: functional; settings: time 16-20 hrs
[52] = system: Pseudomonas aeruginosa; experiment: Bactericidal activity against Pseudomonas aeruginosa 19660 assessed as inhibition of bacterial growth incubated for 16 to 20 hrs; format: functional; settings: time 16-20 hrs

C[C@H]1c2cccc(O)c2C(=O)C2=C(O)[C@]3(O)C(=O)C(C(N)=O)=C(O)[C@@H](N(C)C)[C@@H]3[C@@H](O)[C@@H]21 [DOXYCYCLINE ANHYDROUS]
0.2 µM: MIC [11] | MIC [13]
< 1.56 µM: MIC [12] | MIC [14] | MBC [24] | MBC [27]
> 100 µM: MIC [15] | MBC [22] | MFC [30] | MBC [44] | MBC [45]
0.78 µM: MIC [3]
< 0.39 µM: MIC [8] | MBC [23] | MIC [37] | MBC [46]
12.5 µM: MBC [26] | MIC [35] | MBC [48] | MFC [49]
50 µM: MIC [10]
1.56 µM: MBC [18] | MIC [32]
200 µM: MBC [19] | MBC [20]
3.13 µM: MIC [1] | MIC [2] | MIC [4] | MIC [7] | MIC [9] | MIC [31]
inactive: Activity [50]
100 µM: MBC [16] | MBC [17] | MBC [25] | MBC [40] | MBC [43]
25 µM: MIC [38] | MBC [47]
6.25 µM: MIC [5] | MIC [6] | MBC [21] | MBC [28] | MBC [29] | MIC [33] | MIC [34] | MIC [36] | MBC [41] | MBC [42]
0.39 µM: MIC [39]

C[C@@H](O)[C@H]1C(=O)N2C(C(=O)O)=C(S[C@@H]3CN[C@H](C(=O)N(C)C)C3)[C@H](C)[C@H]12 [MEROPENEM]
< 0.39 µM: MIC [5] | MIC [8] | MBC [23] | MIC [34] | MIC [36] | MIC [37] | MBC [43] | MBC [44] | MBC [45] | MBC [46]
800 µM: MIC [10]
50 µM: MIC [13]
12.5 µM: MIC [14]
< 0.369 µM: MIC [35]
0.1 µM: MIC [4] | MBC [20] | MIC [31] | MBC [40]
200 µM: MIC [38]
0.78 µM: MIC [11]
> 100 µM: MIC [15] | MBC [21] | MFC [30]
< 1.56 µM: MIC [6] | MIC [7] | MIC [9] | MIC [12] | MBC [22] | MBC [24] | MBC [27]
100 µM: MBC [28] | MBC [29] | MIC [39] | MBC [48] | MFC [49]
6.25 µM: MIC [3] | MBC [18] | MBC [52] | MBC [19] | MBC [41] | MBC [42]
0.2 µM: MIC [1] | MIC [2] | MBC [16] | MBC [17]
400 µM: MBC [25] | MBC [47]
3.13 µM: MIC [51] | MBC [26] | MIC [32] | MIC [33]
